In the NIST ThermoML archive (doi:10.1016/j.fluid.2017.04.010):
Numbers after ± are expanded uncertainties.

Assay: wn = mass fraction of the nth substance listed
Settings: 88.35 kPa, Liquid; for viscosity: Capillary tube (Ostwald / Ubbelohde) method

For `O=P([O-])(O)O.[K+]` [monopotassium phosphate] + O, which viscosity (298.15 K, w1 = 0.2075) is on record?
Its viscosity is 1.198 ± 0.12 mPa·s.

And the mass density (298.15 K, Weighing bottle method, w1 = 0.2075)?
Its mass density is 1144 ± 11 kg/m3.

What about the viscosity (313.15 K, w1 = 0.2579) of the same compound?
Its viscosity is 1.013 ± 0.1 mPa·s.

And the mass density (313.15 K, Weighing bottle method, w1 = 0.2579)?
The mass density was 1187.2 ± 12 kg/m3.

What does the source list for `[Cl-].[K+]` [potassium chloride] + O?
viscosity (298.15 K, w1 = 0.2672): 0.8122 ± 0.081 mPa·s; mass density (298.15 K, Weighing bottle method, w1 = 0.2672): 1180 ± 12 kg/m3; viscosity (313.15 K, w1 = 0.29): 0.6778 ± 0.068 mPa·s; mass density (313.15 K, Weighing bottle method, w1 = 0.29): 1192 ± 12 kg/m3

Which results are given for `O=S(=O)([O-])[O-].[K+].[K+]` [potassium sulfate] + O?
viscosity (298.15 K, w1 = 0.1156): 1.015 ± 0.1 mPa·s; mass density (298.15 K, weighing bottle method, w1 = 0.1156): 1084.3 ± 11 kg/m3; viscosity (313.15 K, w1 = 0.1337): 0.7917 ± 0.08 mPa·s; mass density (313.15 K, weighing bottle method, w1 = 0.1337): 1097.7 ± 11 kg/m3
